Data as given in US10709708B2, “Method of treating cancer with a combination of MER tyrosine kinase inhibitor and an epidermal growth factor receptor (EGFR) inhibitor” (Emory University, priority 2016, dated 2020).
pIC50: −log10 of the molar value. Read-outs that look alike come from different tables or passages of the source.

Experiments:
[1] = tested on: mutant EGFR NSCLC cells & EGFR TKI-resistant derivatives; test: Viable cell counts of mutant EGFR NSCLC cells and EGFR TKI-resistant derivatives; format: cell-based; conditions: H1975, H1650 and AZD-9291 or erlotinib resistant derivatives
Method: The indicated cell lines are shown in FIG. 15A (H1975), FIG. 15B (H1650), FIG. 15C (H1975^AZD-R), and FIG. 15D (H1650^AZD-R).
The indicated cell lines are shown in FIG. 16A (H1975), FIG. 16B (H1650), FIG. 16C (H4011), FIG. 16D (H1975^AZD-R), FIG. 16E (H1650^AZD-R), and FIG. 16F (H1650^ERL-R).
NSCLC cells were cultured in the presence of the indicated compound(s) or an equivalent volume of vehicle (DMSO) only and the numbers of viable cells were counted at the indicated intervals using the Incucyte ZOOM live cell imaging system.

[2] = tested on: mutant EGFR NSCLC cell lines; test: Cell counts of mutant EGFR NSCLC cell lines; format: cell-based; conditions: mutant EGFR NSCLC cell lines (H1650, H4006, PC9, HCC827)
Method: (§1) NSCLC and normal bronchial epithelial (BEAS2B) cell lines were cultured with CO-1686 for 60 hours and confluency was determined (BEAS2B) or cells were counted (NSCLC cell lines) and normalized to vehicle-controls.
For treatment with CO-1686, the cell lines are shown in FIG. 9A (H1650), FIG. 9B (H4006), and FIG. 9C (PC9). For treatment with AZD-9291, the cell lines are shown in FIG. 9D (H1650) and FIG. 9E (HCC827). The indicated NSCLC cell lines were treated with CO-1686, AZD-9291, and/or MRX-2843 and cells were counted every 2 hours.

A549 cells = test: Expansion of A549 cells in culture, Incucyte ZOOM live cell imaging; format: cell-based; conditions: for reduction of A549 cell number: agents alone or together at the same concentrations
[3] = tested on: wild-type EGFR NSCLC cell lines; test: Cell counts of wild-type EGFR NSCLC cell lines after 60 hours; format: cell-based
Method: as §1
The indicated NSCLC cell lines were treated with CO-1686 and/or MRX-2843 for 60 hours and cells were counted and normalized to vehicle controls.

[4] = tested on: mutant forms of EGFR including T790M; conditions: Walter et al. 2013; cited from earlier work
[5] = tested on: wild-type EGFR NSCLC cell lines; conditions: as reported by Walter; cited from earlier work
[6] = tested on: mutant EGFR NSCLC cell lines; conditions: EGFR mutation incl. T790M (H1975); 1 μM; as reported by Walter; cited from earlier work
A549 shMERTK cells = test: Confluence of A549 shMERTK cells, Incucyte ZOOM live cell imaging; format: cell-based; conditions: A549 shMERTK cell line, CO-1686 vs vehicle
Text: FIGS. 5A and 5B show inhibition of MERTK using shRNA sensitized A549 cells to CO-1686. FIG. 5A is an immunoblot showing decreased MERTK expression mediated by shRNA in A549 cells. […] FIG. 6A is an immunoblot showing decreased EGFR expression mediated by siRNA in A549 and […] cells.

Clc1ccc(C2(c3ccc(-c4cn[nH]c4)cc3)CCNCC2)cc1 [AT7867]
anti-tumor activity in combination with MRX-2843 [1]: synergistic anti-tumor activity

C=CC(=O)Nc1cc(Nc2nccc(-c3cn(C)c4ccccc34)n2)c(OC)cc1N(C)CCN(C)C [AZD-9291, Osimertinib]
interaction with MRX-2843 [2]: synergize | interaction with MRX-2843 (A549 cells; A549 cells, combined with MRX-2843): synergized

C=CC(=O)Nc1cccc(Nc2nc(Nc3ccc(N4CCN(C(C)=O)CC4)cc3OC)ncc2C(F)(F)F)c1 [CO-1686, Rociletinib]
interaction with MRX-2843 ([3]; broad spectrum of wild-type EGFR NSCLC cell lines): synergizes | sensitivity of cell lines to CO-1686 ([3]; wild-type EGFR cell lines compared to mutant EGFR lines): resistant | pIC50 [4]: 7.68 | interaction with MRX-2843 [2]: synergize | sensitivity of cell lines to CO-1686 [5]: resistant | reduction of A549 cell number (A549 cells; A549 cells): 20.9±5.7% | reduction in cell number (A549 cells; wild-type A549 cells, CO-1686 vs vehicle, confluence): 9.9±2.89% | sensitivity of cell lines to CO-1686 [6]: clear sensitivity | reduction in cell number (A549 shMERTK cells): 23.4±0.22%

CN1CCN(Cc2ccc(-c3cn([C@H]4CC[C@H](O)CC4)c4nc(NCCC5CC5)ncc34)cc2)CC1 [MRX-2843]
reduction of A549 cell number (A549 cells; A549 cells): 13.2±4.1%

Nc1nc(Nc2ccc3c(c2)CCC(N2CCCC2)CC3)nn1-c1cc2c(nn1)-c1ccccc1CCC2 (stereo not drawn) [R428]
interaction with CO-1686 (A549 cells; A549 cells, combined with CO-1686): synergized

CN1CCC(CNc2ccc3ncc(-c4cccc(OC(F)(F)F)c4)n3n2)CC1 [SGI-1776]
anti-tumor activity in combination with MRX-2843 [1]: synergistic anti-tumor activity
